The target in the assay is T1, human GluN1/GluN2B NMDA receptors (Homo sapiens, UniProt Q13224).
T1 construct: expressed in transfected cells
In words: Cell-based calcium flux (FLIPR) assay on cloned human NR1/NR2B ion channels expressed in mammalian cells (standard and HTS buffer variants).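 Further: stable Tet-On inducible cell line, Ca2+ influx triggered by glutamate at about EC40 plus 10 µM glycine, fluorescent dye read-out over 5 min, normalized to control wells.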 In general terms: Calcium assays in cells follow changes in intracellular calcium, usually with a dye or a luminescent sensor.

Setting [1] is: HTS assay buffer (1.5 mM MgCl2 in dye loading buffer; 150 mM NaCl, 3 mM KCl in assay buffer), human GluN1/GluN2B, read-out: NR2B IC50 (μM) HTS assay.
[2] abbreviates: standard assay buffer (0.5 mM MgCl2 dye loading; 137 mM NaCl, 4 mM KCl assay buffer), human GluN1/GluN2B cells, read-out: NR2B IC50 (μM) standard assay.
Where [3] appears, read: standard assay buffer (0.5 mM MgCl2 in dye loading buffer; 137 mM NaCl, 4 mM KCl in assay buffer), human GluN1/GluN2B, read-out: NR2B IC50 (μM) standard assay.

Read-outs that look alike come from different tables or passages of the source. Bounds are passed on as bounds.

Among the data in patent US11759455B2, “Substituted 1H-imidazo[4,5-b]pyridin-2(3H)-ones and their use as GLUN2B receptor modulators” (JANSSEN PHARMACEUTICA NV, priority 2016, dated 2023) are IC50 values, retold here.

For orientation: IC50 means the concentration at which inhibition is half-maximal.

T1 sequence (Q13224 27-1484, other chains not shown): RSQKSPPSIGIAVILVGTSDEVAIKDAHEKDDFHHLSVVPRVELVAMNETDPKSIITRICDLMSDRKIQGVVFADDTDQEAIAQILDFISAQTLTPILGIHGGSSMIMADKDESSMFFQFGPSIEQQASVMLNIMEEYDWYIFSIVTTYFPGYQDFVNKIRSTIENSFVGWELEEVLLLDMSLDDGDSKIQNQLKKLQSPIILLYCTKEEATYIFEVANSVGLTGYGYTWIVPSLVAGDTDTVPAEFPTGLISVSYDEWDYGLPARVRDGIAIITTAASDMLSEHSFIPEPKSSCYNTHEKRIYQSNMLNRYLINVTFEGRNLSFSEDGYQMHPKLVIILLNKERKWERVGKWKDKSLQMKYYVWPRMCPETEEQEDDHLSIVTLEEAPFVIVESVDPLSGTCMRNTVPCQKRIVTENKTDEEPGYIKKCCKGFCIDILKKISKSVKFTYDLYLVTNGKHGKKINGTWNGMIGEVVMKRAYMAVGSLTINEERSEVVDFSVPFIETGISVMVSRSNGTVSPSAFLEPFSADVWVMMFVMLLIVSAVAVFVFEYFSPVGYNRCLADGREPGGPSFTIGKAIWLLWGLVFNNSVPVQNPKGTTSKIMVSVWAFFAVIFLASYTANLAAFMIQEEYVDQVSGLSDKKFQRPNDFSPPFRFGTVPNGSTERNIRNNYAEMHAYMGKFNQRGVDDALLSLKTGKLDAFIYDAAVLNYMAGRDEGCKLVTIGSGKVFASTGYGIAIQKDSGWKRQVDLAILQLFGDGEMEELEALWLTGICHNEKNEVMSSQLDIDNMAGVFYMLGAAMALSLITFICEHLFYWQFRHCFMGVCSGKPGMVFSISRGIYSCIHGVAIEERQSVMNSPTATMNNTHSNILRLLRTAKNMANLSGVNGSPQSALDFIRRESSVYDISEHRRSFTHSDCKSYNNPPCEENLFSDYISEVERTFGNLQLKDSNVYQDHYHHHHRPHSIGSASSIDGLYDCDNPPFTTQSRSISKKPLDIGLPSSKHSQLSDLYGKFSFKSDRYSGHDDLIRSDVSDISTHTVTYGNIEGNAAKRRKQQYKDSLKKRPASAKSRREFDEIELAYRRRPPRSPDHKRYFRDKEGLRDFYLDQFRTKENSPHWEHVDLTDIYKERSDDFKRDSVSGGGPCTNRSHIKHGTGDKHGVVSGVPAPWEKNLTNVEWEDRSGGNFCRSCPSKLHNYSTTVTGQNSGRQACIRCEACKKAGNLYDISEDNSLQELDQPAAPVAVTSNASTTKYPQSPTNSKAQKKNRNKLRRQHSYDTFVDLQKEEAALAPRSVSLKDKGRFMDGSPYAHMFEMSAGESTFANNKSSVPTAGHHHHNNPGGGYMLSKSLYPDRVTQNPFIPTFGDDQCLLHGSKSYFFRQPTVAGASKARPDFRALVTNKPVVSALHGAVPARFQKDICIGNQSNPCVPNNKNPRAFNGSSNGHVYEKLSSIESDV

As for `COc1ccc(-c2cnc3[nH]c(=O)n(CC(=O)NC4CC4)c3c2)c(OC)c1` [Example 454, N-Cyclopropyl-2-[6-(2,4-dimethoxyphenyl)-2-oxo-3H-imidazo[4,5-b]pyridin-1-yl]acetamide], the half-inhibitory concentration (IC50) under setting [1] was 1.94 µM.

For the compound `CCC(=O)Cn1c(=O)[nH]c2ncc(-c3cccc(C(F)(F)F)c3)cc21` [Example 240, 1-(2-Oxobutyl)-6-[3-(trifluoromethyl)phenyl]-3H-imidazo[4,5-b]pyridin-2-one], the IC50 under setting [2] is 0.022 µM.

On to `Cc1ccc(C(F)(F)F)cc1-c1cnc2[nH]c(=O)n(CC(=O)N3CCC3)c2c1` [Example 29, 1-[2-(Azetidin-1-yl)-2-oxo-ethyl]-6-[2-methyl-5-(trifluoromethyl)phenyl]-3H-imidazo[4,5-b]pyridin-2-one], for which, under setting [2], the IC50 was 0.396 µM.

Turning to `CN(C)C(=O)Cn1c(=O)n(C)c2ncc(-c3cc(F)cc(F)c3)cc21` [Example 428, 2-[6-(3,5-Difluorophenyl)-3-methyl-2-oxo-imidazo[4,5-b]pyridin-1-yl]-N,N-dimethyl-acetamide], the IC50 under setting [3] is 0.126 µM.

Turning to `Cc1c(F)ccc(-c2cnc3[nH]c(=O)n(Cc4cncc(F)c4)c3c2)c1F` [Example 301, 6-(2,4-Difluoro-3-methyl-phenyl)-1-[(5-fluoro-3-pyridyl)methyl]-3H-imidazo[4,5-b]pyridin-2-one], the IC50 under setting [2] came to 0.045 µM.

As to `COc1ccc(-c2cnc3[nH]c(=O)n(Cc4ccc(C#N)cc4)c3c2)cc1` [Example 476, 4-[[6-(4-Methoxyphenyl)-2-oxo-3H-imidazo[4,5-b]pyridin-1-yl]methyl]benzonitrile], under setting [1], the IC50 amounted to 4.53 µM.

On to `O=c1[nH]c2ncc(-c3cc(F)cc(F)c3)cc2n1CCNCCO` [Example 173, 6-(3,5-Difluorophenyl)-1-[2-(2-hydroxyethylamino)ethyl]-3H-imidazo[4,5-b]pyridin-2-one], for which the IC50 under setting [2] worked out at 4.26 µM.

On to `Cc1ccncc1Cn1c(=O)[nH]c2ncc(-c3cccc(C(F)(F)F)c3)cc21` [Example 313, 1-[(4-Methyl-3-pyridyl)methyl]-6-[3-b]pyridin-2-one], for which the IC50 under setting [2] stood at 0.018 µM.

For `Cc1cncc(Cn2c(=O)[nH]c3ncc(-c4cccc(F)c4)cc32)c1` [Example 274, 6-(3-Fluorophenyl)-1-[(5-methyl-3-pyridyl)methyl]-3H-imidazo[4,5-b]pyridin-2-one], the IC50 under setting [2] was 0.057 µM.

Take `Cn1c(=O)n(Cc2cncc(Cl)c2)c2cc(-c3ccc(F)c(F)c3)cnc21` [Example 369, 1-[(5-Chloro-3-pyridyl)methyl]-6-(3,4-difluorophenyl)-3-methyl-imidazo[4,5-b]pyridin-2-one]: the IC50 under setting [3] turned out to be 0.096 µM.

In the case of `Cc1cc(-c2cnc3[nH]c(=O)n(CCN4CCC4)c3c2)ccc1F` [Example 156, 1-[2-(Azetidin-1-yl)ethyl]-6-(4-fluoro-3-methyl-phenyl)-3H-imidazo[4,5-b]pyridin-2-one], the IC50 under setting [2] was 0.039 µM.

With `CN(C)C(=O)Cn1c(=O)n(C)c2ncc(-c3ccc(C4CC4)s3)cc21` [Example 110, 2-[6-(5-Cyclopropyl-2-thienyl)-3-methyl-2-oxo-imidazo[4,5-b]pyridin-1-yl]-N,N-dimethyl-acetamide], the IC50 under setting [2] turned out to be 0.04 µM.

As to `COc1cccc(-c2cnc3[nH]c(=O)n(Cc4ccccn4)c3c2)c1` [Example 288, 6-(3-Methoxyphenyl)-1-(2-pyridylmethyl)-3H-imidazo[4,5-b]pyridin-2-one], the IC50 under setting [2] turned out to be 4.05 µM.

In the case of `O=c1[nH]c2ncc(-c3cccc(C(F)(F)F)c3)cc2n1Cc1cncnc1` [Example 255, 1-(Pyrimidin-5-ylmethyl)-6-[3-(trifluoromethyl)phenyl]-3H-imidazo[4,5-b]pyridin-2-one], under setting [2], the IC50 came out at 0.043 µM.

`O=C(O)Cn1c(=O)[nH]c2ncc(-c3cccc(C(F)(F)F)c3)cc21` [Example 135, 2-[2-Oxo-6-[3-(trifluoromethyl)phenyl]-3H-imidazo[4,5-1D]pyridin-1-yl]acetic Acid]: under setting [2], the IC50 came out at 6 µM.

As for `Cn1c(=O)n(CC(=O)N2CC(F)C2)c2cc(-c3ccc(F)c(OC(F)F)c3)cnc21` [Example 589, 6-[3-(Difluoromethoxy)-4-fluoro-phenyl]-1-[2-(3-fluoroazetidin-1-yl)-2-oxo-ethyl]-3-methyl-imidazo[4,5-b]pyridin-2-one], under setting [3], the IC50 came to 0.028 µM.

As to `Cn1c(=O)n(Cc2cccnn2)c2cc(-c3ccc(C(F)(F)F)s3)cnc21` [Example 84, 3-Methyl-1-(pyridazin-3-ylmethyl)-6-[5-(trifluoromethyl)-2-thienyl]imidazo[4,5-b]pyridin-2-one], the IC50 under setting [2] is 0.03 µM.

Take `Cc1cc(-c2cnc3c(c2)n(Cc2cncnc2)c(=O)n3C)ccc1F` [Example 48, 6-(4-Fluoro-3-methyl-phenyl)-3-methyl-1-(pyrimidin-5-ylmethyl)imidazo[4,5-b]pyridin-2-one]: the IC50 under setting [2] was determined as 0.072 µM.

In the case of `Cn1c(=O)n(Cc2csnn2)c2cc(-c3cccc(C(F)(F)F)c3)cnc21` [Example 548, 3-Methyl-1-(thiadiazol-4-ylmethyl)-6-[3-(trifluoromethyl)phenyl]imidazo[4,5-b]pyridin-2-one], the IC50 under setting [3] is 0.185 µM.

For `Cn1c(=O)n(Cc2ccncc2)c2cc(-c3ccc(F)c(F)c3)cnc21` [Example 58, 6-(3,4-Difluorophenyl)-3-methyl-1-(4-pyridylmethyl)imidazo[4,5-b]pyridin-2-one], the IC50 under setting [2] turned out to be 1.9 µM.

`COc1cc(F)ccc1-c1cnc2[nH]c(=O)n(CC(N)=O)c2c1` [Example 433, 2-[6-(4-Fluoro-2-methoxy-phenyl)-2-oxo-3H-imidazo[4,5-b]pyridin-1-yl]acetamide]: under setting [1], the IC50 is 0.867 µM.

With `COc1cc(F)ccc1-c1cnc2[nH]c(=O)n(CC(=O)c3cccs3)c2c1` [Example 462, 6-(4-Fluoro-2-methoxy-phenyl)-1-[2-oxo-2-(2-thienyl)ethyl]-3H-imidazo[4,5-b]pyridin-2-one], under setting [3], the IC50 was determined as 0.255 µM.

As for `Cc1cccc(-c2cnc3c(c2)n(Cc2cccnc2)c(=O)n3C)c1` [Example 356, 3-Methyl-6-(m-tolyl)-1-(3-pyridylmethyl)imidazo[4,5-b]pyridin-2-one], the IC50 under setting [3] was 0.07 µM.

For `O=c1ccc(Cn2c(=O)[nH]c3ncc(-c4cccc(C(F)(F)F)c4)cc32)c[nH]1` [Example 244, 1-[(6-Oxo-1H-pyridin-3-yl)methyl]-6-[3-(trifluoromethyl)phenyl]-3H-imidazo[4,5-b]pyridin-2-one], under setting [2], the 50% inhibitory concentration (IC50) came to 1.89 µM.

`Cn1c(=O)n(Cc2cccnc2)c2cc(-c3cc(F)cc(F)c3)cnc21` [Example 354, 6-(3,5-Difluorophenyl)-3-methyl-1-(3-pyridylmethyl)imidazo[4,5-b]pyridin-2-one]: the IC50 under setting [3] came to 1.03 µM.

On to `Cc1cc(-c2cnc3[nH]c(=O)n(CC(=O)N4CCC4)c3c2)sc1Cl` [Example 324, 1-[2-(Azetidin-1-yl)-2-oxo-ethyl]-6-(5-chloro-4-methyl-2-thienyl)-3H-imidazo[4,5-b]pyridin-2-one], for which, under setting [3], the IC50 was 0.015 µM.

Consider `Cc1nnc(Cn2c(=O)n(C)c3ncc(-c4ccc(C(F)(F)F)s4)cc32)o1` [Example 567, 3-Methyl-1-[(5-methyl-1,3,4-oxadiazol-2-yl)methyl]-6-[5-(trifluoromethyl)-2-thienyl]imidazo[4,5-b]pyridin-2-one], for which, under setting [3], the IC50 was 0.146 µM.

As to `Cn1c(=O)n(CC(=O)N2CCC2)c2cc(-c3ccc(F)c(OC(F)F)c3)cnc21` [Example 588, 1-[2-(Azetidin-1-yl)-2-oxo-ethyl]-6-[3-(difluoromethoxy)-4-fluoro-phenyl]-3-methyl-imidazo[4,5-b]pyridin-2-one], under setting [3], the IC50 amounted to 0.023 µM.

As for `Cc1ccc(-c2cnc3c(c2)n(CC(=O)N2CCC2)c(=O)n3C)s1` [Example 326, 1-[2-(Azetidin-1-yl)-2-oxo-ethyl]-3-methyl-6-(5-methyl-2-thienyl)imidazo[4,5-b]pyridin-2-one], the IC50 under setting [3] stood at 0.022 µM.

As to `O=c1[nH]c2ncc(-c3cccc(C(F)(F)F)c3)cc2n1Cc1cncc(F)c1` [Example 258, 1-[(5-Fluoro-3-pyridyl)methyl]-6-[3-(trifluoromethyl)phenyl]-3H-imidazo[4,5-b]pyridin-2-one], under setting [2], the IC50 was found to be 0.077 µM.

For the compound `Cc1cccnc1Cn1c(=O)[nH]c2ncc(-c3cccc(F)c3)cc21` [Example 285, 6-(3-Fluorophenyl)-1-[(3-methyl-2-pyridyl)methyl]-3H-imidazo[4,5-b]pyridin-2-one], the IC50 under setting [2] is above 10 µM.

On to `Cc1cc(F)ccc1-c1cnc2[nH]c(=O)n(Cc3ccccc3C#N)c2c1` [Example 483, 2-[[6-(4-Fluoro-2-methyl-phenyl)-2-oxo-3H-imidazo[4,5-b]pyridin-1-yl]methyl]benzonitrile], for which the IC50 under setting [1] was 1.8 µM.

For `Cn1c(=O)n(CC(=O)N2CCC2)c2cc(-c3ccc(C(F)(F)F)s3)cnc21` [Example 27, 1-[2-(Azetidin-1-yl)-2-oxo-ethyl]-3-methyl-6-[5-(trifluoromethyl)-2-thienyl]imidazo[4,5-b]pyridin-2-one], the IC50 under setting [2] is 0.031 µM.

In the case of `Cc1cc(C)cc(-c2cnc3[nH]c(=O)n(CCN4CC(F)C4)c3c2)c1` [Example 183, 6-(3,5-Dimethylphenyl)-1-[2-(3-fluoroazetidin-1-yl)ethyl]-3H-imidazo[4,5-b]pyridin-2-one], under setting [2], the IC50 came out at 2.08 µM.

Turning to `Cc1cc(F)ccc1-c1cnc2[nH]c(=O)n(CCN3CCC3)c2c1` [Example 151, 1-[2-(Azetidin-1-yl)ethyl]-6-(4-fluoro-2-methyl-phenyl)-3H-imidazo[4,5-b]pyridin-2-one], the IC50 under setting [2] came out at 0.115 µM.

On to `CCOc1ccccc1-c1cnc2[nH]c(=O)n(Cc3cccc(F)c3)c2c1` [Example 497, 6-(2-Ethoxyphenyl)-1-[(3-fluorophenyl)methyl]-3H-imidazo[4,5-b]pyridin-2-one], for which the IC50 under setting [1] stood at 1.95 µM.

Turning to `CC(C)C(=O)Cn1c(=O)[nH]c2ncc(-c3cccc(C(F)(F)F)c3)cc21` [Example 241, 1-(3-Methyl-2-oxo-butyl)-6-[3-(trifluoromethyl)phenyl]-3H-imidazo[4,5-b]pyridin-2-one], under setting [2], the IC50 turned out to be 0.093 µM.
